Test results: patent publication US10017459B2, “β-substituted β-amino acids and analogs as chemotherapeutic agents and uses thereof” (Quadriga Biosciences, Inc., priority 2015, dated 2018)

Tests used:
[1] = test system: L363; experiment: cells; type: cell-based; details: Homo sapiens, L-363, read-out: IC50 (in vitro toxicity)
[2] = test system: U266; experiment: cells; type: cell-based; details: Homo sapiens, U-266, read-out: IC50 (in vitro toxicity)
[3] = test system: MV411; experiment: cells; type: cell-based; details: Homo sapiens, MV4-11, read-out: IC50 (in vitro toxicity)
[4] = test system: HS27A; experiment: cells; type: cell-based; details: HS-27A, read-out: IC50 (in vitro toxicity)
[5] = test system: HCT116; experiment: In vitro cytotoxicity, HCT116; type: cell-based; details: Homo sapiens, HCT-116, read-out: IC50 (in vitro toxicity)
[6] = test system: human bone marrow cells (erythroid and myeloid progenitors); experiment: In vitro bone marrow toxicity, colony forming cell assays; details: 14 days in culture, methylcellulose media
[7] = test system: MM1.S; experiment: cells; type: cell-based; details: Homo sapiens, read-out: IC50 (in vitro toxicity)
[8] = test system: DBRTG; experiment: cells; type: cell-based; details: read-out: IC50 (in vitro toxicity)
[9] = test system: 1334; experiment: In vitro cytotoxicity, 1334; type: cell-based; details: read-out: IC50 (in vitro toxicity)
[10] = test system: PC3; experiment: Prostate cancer xenograft study, IP dosing; type: in vivo, mouse
Description: The efficacy of compounds provided by the present disclosure was evaluated on a prostate cancer xenograft model—PC3. PC3 tumors were implanted into mice and the study was initiated after the volume of the tumors was 130 mm^3. The animals were IP dosed once a week or 3 times per week for 3 weeks with either vehicle or 1.25 mg/kg, 2.5 mg/kg, or 5 mg/kg of compound (5). The tumor volume, body weight, white blood cell count, and granulocyte count were determined during the study and 10 days after the final dose was administered.

[11] = test system: mouse melanoma cells; experiment: Mouse melanoma efficacy in syngeneic mice
[12] = test system: 42MGBA; experiment: cells; type: cell-based; details: read-out: IC50 (in vitro toxicity)
[13] = test system: U251 MG; experiment: Orthotopic glioblastoma study (Example 83); type: in vivo, mouse; details: athymic mice, 10 mg/kg IP once weekly for 4 weeks
Description: The efficacy of compounds provided by the present disclosure was evaluated using an orthotopic luciferase human glioblastoma model—U251 MG. Human glioblastoma cells were intracolonically injected (3×10^5 cells/3 μL) into athymic mice (female, 4-5 weeks-old, nu/un homozygous). Treatment began when the BLI reached a log-phase growth, at about 14 days after injection. Ten mice were assigned to each arm of the study. The mice were dosed with vehicle (IP, once weekly for 4 weeks), temozolomide (TMZ, 4 mg/kg, OG once daily for 5 days), or compound (5) (10 mg/kg, IP once weekly for 4 weeks). The tumor volume was measured using bioluminescence imaging.

[14] = test system: Raji; experiment: cells; type: cell-based; details: Homo sapiens, read-out: IC50 (in vitro toxicity)
[15] = test system: MDA-MB-231; experiment: cells; type: cell-based; details: Homo sapiens, MDA-MB-231, read-out: IC50 (in vitro toxicity)
[16] = test system: AMO1; experiment: cells; type: cell-based; details: Homo sapiens, AMO1, read-out: IC50 (in vitro toxicity)
[17] = test system: Human prostate cancer PC3 cells; details: mouse, in vivo
[18] = test system: KMS11; experiment: cells; type: cell-based; details: Homo sapiens, KMS-11, read-out: IC50 (in vitro toxicity)
[19] = test system: 794; experiment: cells; type: cell-based; details: read-out: IC50 (in vitro toxicity)
[20] = test system: LLCPK cells conditionally expressing hLAT1; experiment: cells; details: 0.5 h, read-out: LC50, concentration of test compound at which the percent surviving cells was 50%
[21] = test system: U266; experiment: Orthotopic multiple myeloma study; details: mouse, in vivo
Description: The efficacy of compounds provided by the present disclosure was evaluated using an orthotopic luciferase human multiple myeloma model—U266. Human multiple myeloma cells were IV injected (1×10^6 cells) into NSG mice (female, 5-6 weeks-old, Jackson Labs). Treatment began when the BLI reached a log-phase growth, at about 12 to 14 days after injection. Nine mice were assigned to each arm of the study. The mice were dosed with vehicle (IP, once weekly for 3 weeks), bortezomid (BTZ, 0.8 mg/kg, IP twice weekly for 3 weeks), compound (5) (5 mg/kg, IV once weekly for 3 weeks), or compound (5) (10 mg/kg, IV once weekly for 3 weeks). The tumor volume was measured using bioluminescence imaging.

[22] = test system: D283; experiment: cells; type: cell-based; details: D283, read-out: IC50 (in vitro toxicity)
[23] = test system: HS5; experiment: cells; type: cell-based; details: HS5, read-out: IC50 (in vitro toxicity)
[24] = test system: PC3 tumors; experiment: Prostate cancer xenograft study, large tumor study; type: in vivo, mouse
Description: PC3 tumors were implanted into mice and the study was initiated after the volume of the tumors was 500 mm^3. Five (5) mg/kg compound (5) was administered by IP injection three times per week for two weeks. The tumor size, body weight, white cell count, and granulocyte count were measured.
In a counterpart study, mice in which the PC3 tumor size was at least 500 mm^3 were administered either 7.5 mg/kg or 10 mg/kg compound (5) three times a week for four weeks. In these studies, the mice were first administered a dose of either 2.5 mg/kg or 1.25 mg/kg, three times per week for three weeks. The tumor size, body weight, white cell count, and granulocyte count were measured. The tumor volume for the 7.5 mg/kg dosing regimen is resented in FIGS. 8A-8D, and for the 10 mg/kg dosing regimen in FIGS. 9A-9D.

[25] = 5 mg/kg IP three times per week for two weeks
[26] = 7.5 mg/kg or 10 mg/kg dosing regimens

Cc1ccc(N(CCCl)CCCl)cc1C[C@H](N)CC(=O)O [Compound 5, (3S)-3-Amino-4-[5-[bis(2-chloroethyl)amino]-2-methyl-phenyl]butanoic Acid]
IC50 [1]: > 100 µM
IC50 [2]: < 100 µM
IC50 [3]: < 100 µM
IC50 [4]: > 100 µM
IC50 [5]: < 100 µM
toxicity to bone marrow progenitor cells (BFU-E, CFU-GM, Total CFC) [6]: melphalan is more toxic to bone marrow progenitor cells than compound (5)
IC50 [7]: < 100 µM
IC50 [8]: < 100 µM
IC50 [9]: < 100 µM
tumor growth post-treatment ([10]; 1.25 mg/kg, 2.5 mg/kg, and 5 mg/kg regimens, IP): demonstrated a dose response
growth of the tumors ([10]; 5 mg/kg dosing regimen, IP once a week or 3 times per week for 3 weeks): nearly completely suppressed
animal body weights ([10]; all dosing regimens): remained the same increased
white blood cell count and granulocyte count ([10]; during and following treatment, all dosing regimens): remained within normal range
tumor growth after end of dosing ([11]; after dosing ended at 12 days): Tumors began to grow
tumor growth ([11]; dosed daily for 12 days): suppressed tumor growth
white blood cell count ([11]; during treatment): remained within the normal range
IC50 [12]: < 100 µM
crossing of the BBB [13]: crossed the BBB
glioblastoma tumor growth (bioluminescence imaging) [13]: suppressed glioblastoma tumor growth
IC50 [14]: < 100 µM
IC50 [15]: < 100 µM
IC50 [16]: > 100 µM
body weight [17]: maintained weight
myelosuppression [17]: not dectected
tumor growth suppression [17]: dose-dependent tumor growth suppression
IC50 [18]: > 100 µM
IC50 [19]: < 100 µM
CC50 [20]: < 1 µM
multiple myeloma tumor growth (bioluminescence imaging) [21]: dose-dependent suppression of multiple myeloma tumor growth
IC50 [22]: < 100 µM
IC50 [23]: > 100 µM
body weight [24, 25]: decreased
cell counts (white cell, granulocyte) [24, 25]: remained within the normal range
body weights [24, 26]: remained about the same
cell counts (white cell, granulocyte) [24, 26]: remained within the normal range
tumor growth rate, large tumors ([24]; tumors 500 mm3, 5 mg/kg IP three times per week for two weeks): growth rate slowed for some large tumors
PC3 tumor growth, large tumors ([24]; tumors at least 500 mm3, 7.5 mg/kg or 10 mg/kg three times a week for four weeks): slowed in many of the animals and in some the size of the tumor decreased
